Test results reported in patent publication US4316891A, “Extended N-terminal somatostatin” (The Salk Institute for Biological Studies, priority 1980, dated 1982).
Where a SMILES comes first, the peptide text is derived from it. Bridges are numbered along the chain shown (N, C = ends).

Legend:
[1] = juvenile-type diabetics, complete absence of circulating insulin; cited from earlier work
[2] = system: secretion of growth hormone; experiment: in vivo inhibition of growth hormone secretion stimulated by morphine in rats; conditions: in words
Procedure: (§1) The statistical analysis of the results is carried out generally in accordance with the EXBIOL program reported in the article by Sakiz, Excerpta Medica, Int. Cong. Ser. No. 83 (1964), pp. 225-229.

[3] = system: cells of rat pituitary glands; experiment: in vitro inhibition of basal growth hormone secretion in rat pituitary cell cultures, side-by-side with somatostatin; assay type: cell-based; conditions: substantially pure peptide, in words
Procedure: To determine the effectiveness of the peptides to inhibit the release of growth hormone, in vitro assays are carried out using both somatostatin-28and somatostatin-25 in side-by-side comparison with equimolar concentrations of somotostatin having a known effectiveness to inhibit the release of growth hormone by pituitary cells. Cultures are used which include cells of rat pituitary glands removed some four to five days previously. Both cultures of a defined standard medium and cultures which are considered optimal for the secretion of growth hormone, as a result of having additions of either 2% or 10% of serum from a foetal calf, are used for the comparative testing between either somatostatin and somatostatin-28 or between somatostatin and somatostatin-25.
as §1

Row | Compound | diminution of fasting hyperglycemia [1] [%] | activity versus somatostatin to inhibit growth hormone secretion stimulated by morphine [2] | potency versus somatostatin in inhibiting the release of GH in vitro [3]
1 | somatostatin: tetradecapeptide somatostatin characterized by Guillemin et al., U.S. Pat. No. 3,904,594 (H-AGCKNFFWKTFTSC-OH; disulfide 3-14; ends not checked; UniProt P61278 103-116, looked up) | ≤ 50 | – | –
2 | CSCC[C@H](NC(=O)[C@H](C)NC(=O)[C@@H]1CCCN1C(=O)[C@H](CC(N)=O)NC(=O)[C@@H](N)CO)C(=O)N[C@@H](C)C(=O)N1CCC[C@H]1C(=O)N[C@@H](CCCNC(=N)N)C(=O)N[C@@H](CCC(=O)O)C(=O)N[C@@H](CCCNC(=N)N)C(=O)N[C@@H](CCCCN)C(=O)N[C@@H](C)C(=O)NCC(=O)N[C@H]1CSSC[C@@H](C(=O)O)NC(=O)[C@H](CO)NC(=O)[C@H]([C@@H](C)O)NC(=O)[C@H](Cc2ccccc2)NC(=O)[C@H]([C@@H](C)O)NC(=O)[C@H](CCCCN)NC(=O)[C@H](Cc2c[nH]c3ccccc23)NC(=O)[C@H](Cc2ccccc2)NC(=O)[C@H](Cc2ccccc2)NC(=O)[C@H](CC(N)=O)NC(=O)[C@H](CCCCN)NC1=O [somatostatin-25] (H-SNPAMAPRERKAGCKNFFWKTFTSC-OH; disulfide 14-25) | – | much more active than somatostatin | more potent than somatostatin
3 | CSCC[C@H](NC(=O)[C@H](C)NC(=O)[C@@H]1CCCN1C(=O)[C@H](CC(N)=O)NC(=O)[C@H](CO)NC(=O)[C@H](CC(N)=O)NC(=O)[C@H](C)NC(=O)[C@@H](N)CO)C(=O)N[C@@H](C)C(=O)N1CCC[C@H]1C(=O)N[C@@H](CCCNC(=N)N)C(=O)N[C@@H](CCC(=O)O)C(=O)N[C@@H](CCCNC(=N)N)C(=O)N[C@@H](CCCCN)C(=O)N[C@@H](C)C(=O)NCC(=O)N[C@H]1CSSC[C@@H](C(=O)O)NC(=O)[C@H](CO)NC(=O)[C@H]([C@@H](C)O)NC(=O)[C@H](Cc2ccccc2)NC(=O)[C@H]([C@@H](C)O)NC(=O)[C@H](CCCCN)NC(=O)[C@H](Cc2c[nH]c3ccccc23)NC(=O)[C@H](Cc2ccccc2)NC(=O)[C@H](Cc2ccccc2)NC(=O)[C@H](CC(N)=O)NC(=O)[C@H](CCCCN)NC1=O [somatostatin-28] | – | much more active than somatostatin | more potent than somatostatin
